ChEMBL document CHEMBL1926682, “Triterpene galactosides of the pouoside class and corresponding aglycones from the sponge Lipastrotethya sp” (J Nat Prod, 2011)
Converted amounts (≈) assume the structure as drawn.

Experiments:
K562 = assay: Cytotoxicity against human K562 cells by spectrophotometric analysis; type: functional, cell-based
P388 = assay: Cytotoxicity against mouse P388 cells; type: functional; conditions: read-out: ED50 (the source's name)

Compound | IC50 (K562) [µM] | EC50 (P388) [µg/mL]
COc1cccc2c1C(=O)c1c(O)c3c(c(O)c1C2=O)C[C@@](O)(C(=O)CO)C[C@@H]3O[C@H]1C[C@H](N)[C@H](O)[C@H](C)O1 [DOXORUBICIN] | 13.6 | 
CC(=O)O[C@@]1(C)CC[C@H](O)C(C)(C)[C@@H]1CC/C(C)=C/C[C@@H](O)/C=C(\C)[C@@H](O)C[C@@H]1C(C)=CCC(=O)C1(C)C [POUOGENIN A] | 14.8 | 
CC(=O)O[C@@H](C[C@@H]1C(C)=CCC(=O)C1(C)C)/C(C)=C/[C@@H](C/C=C(\C)CC[C@H]1C(C)(C)[C@@H](O)CC[C@]1(C)OC(C)=O)OC(C)=O [POUOGENIN B] | 38.9 | 
CC(=O)O[C@@H](C[C@@H]1C(C)=CCC(=O)C1(C)C)/C(C)=C/[C@H](O)C/C=C(\C)CC[C@H]1C(C)(C)[C@@H](O)CC[C@]1(C)OC(C)=O [POUOGENIN C] | 14.6 | 
CC(=O)O[C@@H](C[C@H]1C(C)(C)C(=O)C=C[C@]1(C)O)/C(C)=C/[C@H](O)C/C=C(\C)CC[C@H]1C(C)(C)[C@@H](O)CC[C@]1(C)OC(C)=O [POUOGENIN D] | 27.5 | 
CC(=O)O[C@@]1(C)CC[C@H](O)C(C)(C)[C@@H]1CC/C(C)=C/C[C@@H](O)/C=C(\C)C(=O)C[C@H]1C(C)(C)C(=O)C=C[C@]1(C)O [POUOGENIN E] | 18.9 | 
CC(=O)O[C@@H](C[C@@H]1C(C)=CCC(=O)C1(C)C)/C(C)=C/[C@@H](C/C=C(\C)CC[C@H]1C(C)(C)[C@@H](O[C@@H]2O[C@H](CO)[C@H](O)[C@H](O)[C@H]2O)CC[C@]1(C)OC(C)=O)OC(C)=O [POUOSIDE A] | 17 | 1.5 (≈ 1.93 µM)
CC(=O)O[C@@H](C[C@@H]1C(C)=CCC(=O)C1(C)C)/C(C)=C/[C@H](O)C/C=C(\C)CC[C@H]1C(C)(C)[C@@H](O[C@@H]2O[C@H](CO)[C@H](O)[C@H](O)[C@H]2O)CC[C@]1(C)OC(C)=O [POUOSIDE B] | > 100 | 
CC(=O)O[C@H]1[C@H](O[C@H]2CC[C@](C)(OC(C)=O)[C@@H](CC/C(C)=C/C[C@H](/C=C(\C)[C@H](C[C@@H]3C(C)=CCC(=O)C3(C)C)OC(C)=O)OC(C)=O)C2(C)C)O[C@H](CO)[C@H](O)[C@@H]1O [POUOSIDE D] | 12.5 | 
CC(=O)O[C@@]1(C)CC[C@H](O[C@@H]2O[C@H](CO)[C@H](O)[C@H](O)[C@H]2O)C(C)(C)[C@@H]1CC/C(C)=C/C[C@@H](O)/C=C(\C)[C@@H](O)C[C@@H]1C(C)=CCC(=O)C1(C)C [POUOSIDE F] | > 100 | 
CC(=O)O[C@@H](C[C@H]1C(C)(C)C(=O)C=C[C@]1(C)O)/C(C)=C/[C@H](O)C/C=C(\C)CC[C@H]1C(C)(C)[C@@H](O[C@@H]2O[C@H](CO)[C@H](O)[C@H](O)[C@H]2O)CC[C@]1(C)OC(C)=O [POUOSIDE G] | > 100 | 
CC(=O)O[C@@]1(C)CC[C@H](O[C@@H]2O[C@H](CO)[C@H](O)[C@H](O)[C@H]2O)C(C)(C)[C@@H]1CC/C(C)=C/C[C@@H](O)/C=C(\C)C(=O)C[C@H]1C(C)(C)C(=O)C=C[C@]1(C)O [POUOSIDE H] | > 100 | 
C=C1CC[C@H](O[C@@H]2O[C@H](CO)[C@H](O)[C@H](O)[C@H]2O)C(C)(C)[C@@H]1CC/C(C)=C/C[C@H](/C=C(\C)[C@H](C[C@@H]1C(C)=CCC(=O)C1(C)C)OC(C)=O)OC(C)=O [POUOSIDE I] | > 100 | 
